Where a SMILES comes first, the peptide text is derived from it.
Key:
[1] = system: P. aeruginosa strain PAO1; conditions: for final MIC of antibiotic: in the presence of subinhibitory concentrations of peptide P22, strain PAO1
Description: For these experiments we used the wild type P. aeruginosa strain PAO1, whose mechanisms of antibiotic resistance have been extensively studied.
(§1) The ability of the peptides to induce bacterial sensitization to antibiotics was determined by a standard checkerboard titration method in 96-well polystyrene microtiter plates. For this purpose, serial dilutions of the two antimicrobial agents were mixed together in a microtiter plate so that each row contained a fixed amount of peptide and increasing amounts of the antibiotic. Inocula and growth conditions were identical to those described for MIC determination. To assess the synergy between antibiotics and peptides, the Fractional Inhibitory Concentration (FIC) index of each combination was calculated according to the following formula: [(A)/MICA] + [(P)/MICP] = FICA + FICP = FIC index, where MICA and MICP are the MICs of the antibiotic and peptide determined separately, and (A) and (P) are the MICs of the antibiotic and peptide when determined in combination. A given peptide-antibiotic combination was considered as synergistic if its FIC index was ≤ 0.5.

[2] = system: Pseudomonas aeruginosa 4158-02; test: microbe, parasite or virus in culture; conditions: for FIC index of peptide-novobiocin combination: checkerboard, peptides with MIC >250 μg/mL assigned 500 μg/mL, synergistic if ≤ 0.5; for synergistic activity with novobiocin, in words: subinhibitory peptide concentrations
Description: First, we studied the ability of the peptides to sensitize P. aeruginosa to novobiocin, a hydrophobic antibiotic that cannot reach its intracellular target (gyrase) due to its inability to cross an intact outer membrane. […] Specifically, for a combination to be considered synergistic MIC of each agent when combined have to be at least 4-times lower than that of the corresponding agent alone.
as §1

[3] = system: Pseudomonas aeruginosa; test: NPN uptake permeabilization assay; assay type: cell-based; conditions: peptide 50 μg/mL; NPN 10 μM; 5 mM HEPES pH 7.2 with 0.1% glucose; 37°C
Description: In addition to this indirect method, we used a direct assay which measures the ability of peptides to promote the entry of a hydrophobic fluorescent probe (1-N-phenylnaphthylamine; NPN) into the cell membrane. This method identifies potent permeabilizers as those causing rapid NPN uptake leading to a high level of fluorescence.
The peptides permeabilizing activity on the bacterial cell envelope was assessed by quantifying the uptake of 1-N-phenylnaphthylamine (NPN). These experiments were performed essentially as described by Loh and collaborators with some modifications. Briefly, bacterial cells were grown in LB broth to mid-logarithmic phase, washed in 5 mM HEPES buffer (N-2-hydroxyethylpiperazine-N'-2-ethanesulfonic acid, pH 7.2) and resuspended at an OD600 of 0.5 in HEPES supplemented with 0.1% glucose. Freshly prepared bacterial suspensions were allowed to stabilize at 37°C for 10 min in quartz cuvettes. NPN was added at a final concentration of 10 μM and fluorescence was measured with a fluorometer (LS-50, Perkin-Elmer, Wellesley, MA, USA) using the time drive recording mode, slit widths of 2.5 nm and excitation and emission wavelengths of 350 nm and 420 nm, respectively. Peptides were added to the cuvette at a final concentration of 50 μg/mL.

[4] = system: E. coli ATCC 25922; test: MIC/MBC in polypropylene vs. polystyrene microplates; assay type: cell-based, Escherichia coli; conditions: for MIC, polypropylene vs. polystyrene plates: broth microdilution
Description: It has been reported that cationic peptides have affinity for certain plastics (i.e. polystyrene; [20]), and as a consequence some authors disfavor the use of microplates made of such material. To investigate this potential interference, we studied whether the composition of the microplate (polypropylene vs. polystyrene) affected the antibacterial activity of selected peptides differing in length, hydrophobicity and net charge when tested on E. coli ATCC 25922.
The peptides MICs were determined in Mueller-Hinton (MH) medium (Difco Laboratories, Sparks, MD, USA) by the broth microdilution assay following recommendations of the Clinical and Laboratory Standards Institute. Briefly, serial twofold dilutions of the peptides were made in MH broth and dispensed into 96-well U-bottom polystyrene microtiter plates (TPP, Trasadingen, Switzerland). Bacterial cells grown for 18–20 h on agar plates were suspended in saline and the turbidity was adjusted to an O.D600 of 0.04 (1 × 10^7 CFU/mL, approximately). A hundred-fold dilution of this suspension prepared in MH broth was mixed 1:1 with 100 μL of each of the corresponding peptide dilution. Plates were incubated at 37°C without shaking for 18–20 h and the MIC was determined visually. Minimum bactericidal concentration (MBC) was determined by plating aliquots from those wells with no growth onto MH agar plates. MBC was defined as the lowest concentration of the peptide causing a 99.9% loss of viability with respect to the CFU/mL inoculated.
The peptides MICs were also determined using polypropylene labware by the conventional broth microdilution assay as described above. For these experiments, polypropylene 96 well round bottom plates (Greiner; Sigma-Aldrich, USA) were used. Both this and all the previous antimicrobial susceptibility assays were performed at least in duplicate.

[5] = system: Bordetella bronchiseptica; test: Bactericidal activity on resting bacteria in phosphate buffer with or without Ca2+/Mg2+; assay type: cell-based; conditions: 20 mM phosphate pH 7.0 (PB vs PB-CM), 18 hours, viable counts
Description: (§2) All peptides were first screened for bactericidal activity under low ionic strength conditions on resting bacteria. For this purpose, we exposed bacterial cells in phosphate buffer (PB) to increasing concentrations of peptides and performed viable cell counts. Experimental designs similar to this are found in reports dealing with the biological characterization of peptides (see for instance). These experiments were performed on Escherichia coli, Pseudomonas aeruginosa and Bordetella bronchiseptica, three Gram-negative pathogens differing in sensitivity to APs.
(§3) The buffer used in the previous experiments was devoid of Ca^2+ and Mg^2+, two divalent cations known to contribute to outer membrane stabilization. […] However, the magnitude of the decrease varied markedly depending upon the peptide and strain.
(§4) The activity of the peptides was determined on non-growing bacteria by incubating bacterial suspensions containing number of CFU/mL identical to those used for the MIC assay (5 × 10^4 per microplate well) in low-ionic strength medium (20 mM phosphate, pH 7.0) with or without 1 mM Ca ^2+ and 1 mM Mg ^2+. After 18 hours, aliquots were plated onto MH agar to determine the presence of viable bacteria, as described above for the standard MBC assay.

[6] = system: Escherichia coli; test: as above; assay type: cell-based; conditions: 20 mM phosphate pH 7.0 (PB vs PB-CM), 18 hours, viable counts
Description: as §2, §3, §4

[7] = system: Pseudomonas aeruginosa; test: as above; assay type: cell-based; conditions: 20 mM phosphate pH 7.0 (PB vs PB-CM), 18 hours, viable counts
Description: as §2, §3, §4

CC[C@H](C)[C@H](NC(=O)[C@H](CC(N)=O)NC(=O)[C@H](CCCNC(=N)N)NC(=O)[C@H](CCC(N)=O)NC(=O)[C@H](Cc1c[nH]c2ccccc12)NC(=O)[C@H](Cc1ccccc1)NC(=O)[C@@H](N)CCCNC(=N)N)C(=O)N[C@@H](CCCNC(=N)N)C(=O)N[C@@H](CCCCN)C(=O)N[C@@H](Cc1ccc(O)cc1)C(=O)N[C@@H](CCCNC(=N)N)C(=O)N[C@@H](CCCNC(=N)N)C(N)=O [P 22] (H-RFWQRNIRKYRR-NH2)
FIC of P22-antibiotic combinations ([1]; PAO1): < 0.5 | peptide MIC ([1]; PAO1): 31.25 µg/mL

CC1(C)S[C@@H]2[C@H](NC(=O)[C@H](N)c3ccc(O)cc3)C(=O)N2[C@H]1C(=O)O [amoxicillin]
final MIC of antibiotic [1]: 2 µg/mL

CC1(C)S[C@@H]2[C@H](NC(=O)[C@H](N)c3ccccc3)C(=O)N2[C@H]1C(=O)O [ampicillin]
final MIC of antibiotic [1]: 5 µg/mL

CC[C@H]1OC(=O)[C@H](C)[C@@H](O[C@H]2C[C@@](C)(OC)[C@@H](O)[C@H](C)O2)[C@H](C)[C@@H](O[C@@H]2O[C@H](C)C[C@H](N(C)C)[C@H]2O)[C@](C)(O)C[C@@H](C)C(=O)[C@H](C)[C@@H](O)[C@]1(C)O [erythromycin]
final MIC of antibiotic [1]: 1 µg/mL

CCn1cc(C(=O)O)c(=O)c2ccc(C)nc21 [nalidixic acid]
final MIC of antibiotic [1]: 2 µg/mL

CO[C@@H]1[C@@H](OC(N)=O)[C@@H](O)[C@H](Oc2ccc3c(O)c(NC(=O)c4ccc(O)c(CC=C(C)C)c4)c(=O)oc3c2C)OC1(C)C [novobiocin, reference compound]
MIC ([2]; Pseudomonas aeruginosa, 415802, read-out: novobiocin MIC in the absence of peptides): ≥ 512 µg/mL | final MIC of antibiotic [1]: 5 µg/mL

CO[C@H]1/C=C/O[C@@]2(C)Oc3c(C)c(O)c4c(O)c(c(/C=N/N5CCN(C)CC5)c(O)c4c3C2=O)NC(=O)/C(C)=C\C=C\[C@H](C)[C@H](O)[C@@H](C)[C@@H](O)[C@@H](C)[C@H](OC(C)=O)[C@@H]1C [rifampicin]
final MIC of antibiotic [1]: 0.07 µg/mL

CFWQRNIRKVRC-NH2 [P 28, LF11 derived synthetic peptide, disulfide insertion, linear]
classification by the novobiocin-sensitization technique [2]: poor permeabilizers | NPN uptake (fluorescence rise) [3]: slowest and less prominent NPN-uptakes

FWARNIRKVR-NH2 [P 46, LF11 derived synthetic peptide, amidated C-terminus]
MBC, polypropylene vs. polystyrene plates [4]: improved its MBC when using polypropylene instead of polystyrene

FWLRNIRKVR-NH2 [P 48]
FIC index of peptide-novobiocin combination [2]: low FIC indices

FWQRNIRKVKKK-NH2 [P 10]
FIC index of peptide-novobiocin combination [2]: best compounds as judged by their FIC indices | synergistic activity with novobiocin, in words [2]: synergistic activity at low concentrations

FWQRNIRKVKKKI-NH2 [P 14]
FIC index of peptide-novobiocin combination [2]: best compounds as judged by their FIC indices | decrease in novobiocin MIC (MIC ratio without/with peptide) ([2]; peptide added at 6.25 μg/mL): 4 fold | times the synergistic peptide concentration (6.25 μg/mL) is lower than the peptide's own MIC ([2]; peptide at 6.25 μg/mL): at least 40 times

FWQRNIRKVKKKK-NH2 [P 13, LF11 derived synthetic peptide, amidated C-terminus]
MBC, polypropylene vs. polystyrene plates [4]: not significantly affected by the type of material used | MIC, polypropylene vs. polystyrene plates [4]: MIC improved in polypropylene plates

FWQRNIRKVRRRR-NH2 [P 11, LF11 derived synthetic peptide, amidated C-terminus]
MBC, polypropylene vs. polystyrene plates [4]: lower in polystyrene | MIC, polypropylene vs. polystyrene plates [4]: same MIC in both materials

FWQRNISKVR-NH2 [P 54, LF11 derived synthetic peptide, amidated C-terminus]
classification by the novobiocin-sensitization technique [2]: poor permeabilizers | NPN uptake (fluorescence rise) [3]: slowest and less prominent NPN-uptakes

FWQRNIYKVR-NH2 [P 41, LF11 derived synthetic peptide, amidated C-terminus]
classification by the novobiocin-sensitization technique [2]: poor permeabilizers | NPN uptake (fluorescence rise) [3]: slowest and less prominent NPN-uptakes

FWQRRIRKVRR-NH2 [P 15]
FIC index of peptide-novobiocin combination [2]: low FIC indices | synergistic activity with novobiocin, in words [2]: synergistic activity at low concentrations

FWRNIRKVR-NH2 [P 3, LF11 derived synthetic peptide, amidated C-terminus]
classification by the novobiocin-sensitization technique [2]: poor permeabilizers | NPN uptake (fluorescence rise) [3]: slowest and less prominent NPN-uptakes

Polymyxin B [PMB]
MIC, polypropylene vs. polystyrene plates [4]: higher activity (lower MIC value) when assayed in polypropylene | effect of 1 mM Ca2+ and 1 mM Mg2+ on bactericidal activity [5]: not significantly affected by the divalent cations | effect of 1 mM Ca2+ and 1 mM Mg2+ on bactericidal activity [6]: not significantly affected by the divalent cations | effect of 1 mM Ca2+ and 1 mM Mg2+ on bactericidal activity [7]: not significantly affected by the divalent cations

Reference: article PMC2615442, “Comparative analysis of selected methods for the assessment of antimicrobial and membrane-permeabilizing activity: a case study for lactoferricin derived peptides” (BMC Microbiology, 2008)
